# What was measured:
# [1] = tested on: IL-7R gene; experiment: Expression of IL-7R gene in MV4-11 cells, RT-PCR; type: cell-based, human; details: MV4-11 cells, 10, 30 or 100 nmol/L, 6 hours
# Experimental: (§1) A fluctuation in the expression of c-Myc, IL-7R and HEXIM1 genes in MV4-11 (ATCC) cells treated with the test compound was analyzed according to a reverse transcription polymerase chain reaction (RT-PCR) method.
# (§2) MV4-11 cells were cultured for 6 hours in an RPMI-1640 medium supplemented with penicillin/streptomycin and FBS with a final concentration of 10%, to which the compound of Example 14 was added to a concentration of 10 nmol/L, 30 nmol/L or 100 nmol/L. On the other hand, a non-treatment group (Non-treatment) was established by culturing MV4-11 cells for 6 hours in the above-described medium, to which the compound of Example 14 was not added. Using Rneasy (registered trademark) (Qiagen), RNA was extracted from the above-described MV4-11 cells in accordance with the instruction manual included with the aforementioned device. […] Thereafter, a PCR reaction was carried out for 40 cycles (a cycle consisting of 95° C.-5 seconds and 60° C.-30 seconds.) Subsequently, the obtained reaction product was measured.
# (§3) As a housekeeping gene, the expression level of GAPDH (Glyceraldehyde 3-phosphate dehydrogenase) was also evaluated. The ratio of the expression level of the mRNA of each of c-Myc, IL-7R and HEXIM1 to the expression level of GAPDH was calculated, and the expression level of each gene (relative expression level) was then quantified. […]
# [2] = tested on: c-Myc gene; experiment: Expression of c-Myc gene in MV4-11 cells, RT-PCR; type: cell-based, human; details: MV4-11 cells, 10, 30 or 100 nmol/L, 6 hours
# Experimental: as §1, §2, §3
# [3] = tested on: c-Myc gene; experiment: Intratumoral expression of c-Myc gene in MV4-11-subcutaneously-transplanted cancer-bearing mouse models, RT-PCR; type: in vivo; details: 30 mg/kg
# Experimental: According to an RT-PCR method, a fluctuation in the intratumoral expression of a c-Myc gene in MV4-11-subcutaneously-transplanted cancer-bearing mouse models, to which a test compound had been administered, was analyzed.
# The compound of Example 14 was dissolved in a solvent (a 0.5% methyl cellulose aqueous solution or water containing 1 equivalent of hydrochloric acid), and the obtained solution was then orally administered to the mice at a dose of 30 mg/kg. As a negative control, a solvent administration group (vehicle) involving administration of a 0.5% methyl cellulose aqueous solution was established. Moreover, the test compound was dissolved in a solvent (a normal saline containing 1 equivalent of hydrochloric acid), and the obtained solution was then intravenously administered to the mice at a dose of 30 mg/kg. As a negative control, a solvent administration group (vehicle) involving administration of a normal saline was established. From MV4-11-subcutaneously-transplanted cancer-bearing mice involving oral or intravenous administration of the test compound, tumor was excised 1, 3, 6 and 24 hours (hr) after the administration. […] A PCR reaction was carried out by the same method as that of Test Example 5, and a fluctuation in the gene expression of GAPDH and c-Myc in the tumor was then evaluated.
# [4] = Intravenous administration toxicity test on rats; type: in vivo, rat
# Experimental: With reference to the above-described findings, the compound of the present example was administered to rats via repeated intravenous administration, and the influence of the compound on the body weight and the digestive tract was then evaluated.
# The compound of Example 14 was dissolved in a solvent (a normal saline containing 1 equivalent of hydrochloric acid), and the obtained solution was then intravenously administered to 6-week-old male SD rats (Charles River Laboratories Japan) at a dose of 30 to 60 mg/kg, once a day, for 7 days. As a negative control, a solvent administration group involving administration of a normal saline was established. At the time of the final administration, the plasma concentration of the compound of Example 14 was measured. […] Moreover, a weight reduction was not observed during the administration period. Furthermore, on the day following the final administration, pathological evaluation was carried out.
# [5] = tested on: WSU-DLCL2; experiment: Cell growth test (Cell Titer Blue) WSU-DLCL2; type: cell-based; details: Homo sapiens, WSUDLCL2, 72 h, WSU-DLCL2, Lymphoma, 3 days
# Experimental: Moreover, the compound of Example 14 was subjected to a cell growth test using various types of cell lines.
# All cell lines other than the below-noticed cells were each seeded in a well plate, in which an RPMI-1640 medium supplemented with penicillin/streptomycin and FBS with a final concentration of 10% was placed. The human prostate cancer cell line VCaP (ATCC) was seeded in a well plate, in which DMEM medium supplemented with penicillin/streptomycin and FBS with a final concentration of 10% was placed. […] Thereafter, using Enspire Multimode Plate Reader (PerkinElmer), the amount of fluorescence at an excitation wavelength of 531 nm and a fluorescence wavelength of 615 nm was measured. Since the amount of fluorescence is in proportion to the concentration of a florescent product resorufin that is converted from resazurin as a redox dye by living cells, the amount of fluorescence was used as an indicator of the number of living cells. The growth inhibition percentage of the test compound in each concentration was calculated according to the following equation. Growth inhibition percentage (%)=(amount of fluorescence in test compound−added well)/(amount of fluorescence in DMSO−added well)×100 […]
# [6] = male SD rats, intravenously 30 to 60 mg/kg, once a day, 7 days
structure (smiles),measurement,setting,value
"CCn1c(=O)cc(C2CCN(C)CC2)c2cc(C(=O)N(C)c3ccc(C)cc3)ccc21 [Example 14, 1-Ethyl-N-methyl-N-(4-methylphenyl)-4-(1-methylpiperidin-4-yl)-2-oxo-1,2-dihydroquinoline-6-carboxamide]",mRNA expression of IL-7R (GAPDH correction),[1],decreased in a compound concentration-dependent manner
same,mRNA expression of c-Myc (GAPDH correction),[2],decreased in a compound concentration-dependent manner
same,intratumoral expression of the c-Myc gene,"[3]; intravenously, tumor excised 1, 3, 6 and 24 hr after administration (FIG. 4)",decreased
same,intratumoral expression of the c-Myc gene,"[3]; orally, tumor excised 1, 3, 6 and 24 hr after administration (FIG. 5)",decreased
same,plasma concentration at the time of the final administration,[4]; [6],increased in proportion to the applied dose
same,weight reduction during the administration period,[4]; [6],not observed
same,pathological evaluation of gastrointestinal epithelial cells including gastrointestinal epithelial stem cells,"[4]; male SD rats, intravenously 30 to 60 mg/kg, once a day, 7 days, day following the final administration",no disorders were found
same,AUC without weight reduction relative to the AUC upon intravenous administration in Test Example 3,"[4]; rats, intravenous",3.8 times
same,GI50,[5],91 nM

# Reference: patent publication US10987349B2, “Antitumor agent and bromodomain inhibitor” (FUJIFILM Corporation, priority 2016, dated 2021)
